According to ChEMBL document CHEMBL1201862, “PubChem BioAssay data set” (2004):
Active and inactive are the calls of the source.

Experiments:
[1] = molecular target: T1, Small ubiquitin-related modifier 1 (Homo sapiens, UniProt P63165); experiment: inhibitors of SUMO1 partner interactions, dose response, biochemical, FRET (AID 624383); type: functional; details: read-out: IC50_Mean
[2] = Luminescence Cell-Based Dose Retest to Confirm Inhibitors of Cancer Stem Cells. [Related pubchem assays (depositor defined):AID2717, AID2721]; type: functional; details: Homo sapiens
[3] = molecular target: T1, Small ubiquitin-related modifier 1; experiment: inhibitors of SUMO1 peptide binding, dose response, biochemical, fluorescence polarization, uHTS hits (AID 624382); type: functional; details: read-out: IC50_Mean
[4] = molecular target: T2, Heat shock factor protein 1 (Mus musculus, UniProt P38532); experiment: HSF1 potentiators in luciferase reporter cells, confirmation, cell-based, NIH3T3, luminescence, dose retest (AID 435004); type: functional;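 also: stress induced by proteasome inhibitor MG132 added 30 min after compound; luciferase reporter driven by HSF1 response element in NIH3T3 cells; actives raise luminescence as potentiators of the MG132 stress response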
T2 sequence (P38532 whole entry): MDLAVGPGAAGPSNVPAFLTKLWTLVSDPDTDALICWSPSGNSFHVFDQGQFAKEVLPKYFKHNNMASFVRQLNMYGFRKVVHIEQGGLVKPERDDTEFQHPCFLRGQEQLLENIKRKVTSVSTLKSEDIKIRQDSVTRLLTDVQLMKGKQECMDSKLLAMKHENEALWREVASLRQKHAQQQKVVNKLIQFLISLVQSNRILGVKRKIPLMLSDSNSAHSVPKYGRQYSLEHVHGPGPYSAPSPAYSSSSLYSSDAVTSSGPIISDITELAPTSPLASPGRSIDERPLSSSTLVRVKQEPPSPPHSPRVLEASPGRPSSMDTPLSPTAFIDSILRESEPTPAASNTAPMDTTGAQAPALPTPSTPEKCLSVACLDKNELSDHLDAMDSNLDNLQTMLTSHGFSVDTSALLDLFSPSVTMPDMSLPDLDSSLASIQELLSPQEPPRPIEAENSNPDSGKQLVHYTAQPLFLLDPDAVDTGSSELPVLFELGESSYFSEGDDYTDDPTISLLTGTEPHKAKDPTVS

HEK293 [5] = experiment: NOD1 signaling inhibitors, primary screen, cell-based, luminescence, uHTS (AID 1578); type: functional; details: Homo sapiens
HEK293 [6] = experiment: cells; type: functional, cell-based; details: Homo sapiens
[7] = control 3'UTR Renilla luciferase suppression, dose response, counter-screen for Shn3 inhibitor project, cell-based, Clone20-Shn3RL, cherry-picked (AID 624133); type: functional
[8] = Shn3 3'UTR reporter inhibitors, dose response, cell-based, Clone20 osteoblasts, firefly luciferase, cherry-picked (AID 624132); type: functional;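 also: firefly luciferase luminescence from reporter carrying the Shn3 3'UTR in osteoblasts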
[9] = HepG2 cell cytotoxicity, dose response, cytotoxicity control for Shn3 inhibitor project, CellTiter-Glo, cherry-picked (AID 624134); type: functional, cell-based
HEK293 [10] = experiment: NOD2 signaling inhibitors in MDP-stimulated cells, cell-based, uHTS, luminescence (AID 2001); type: functional; details: Homo sapiens
HEK293 [11] = experiment: cells; type: functional, cell-based; details: Homo sapiens; remark: listed apart in the source
[12] = molecular target: ATP-dependent molecular chaperone HSP82 (Candida albicans (strain WO-1) (Yeast), UniProt C4YTQ8); experiment: loss of DOC-induced GRE-beta-galactosidase reporter signal, dose response, Hsp90 inhibitor project, S. cerevisiae, luminescence (AID 2400); type: functional, cell-based;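 also: beta-galactosidase luminescence from glucocorticoid response element reporter as proxy for Hsp90 function; inhibitor potency where signal loss means Hsp90 inhibition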
Chain of ATP-dependent molecular chaperone HSP82 (C4YTQ8 whole entry): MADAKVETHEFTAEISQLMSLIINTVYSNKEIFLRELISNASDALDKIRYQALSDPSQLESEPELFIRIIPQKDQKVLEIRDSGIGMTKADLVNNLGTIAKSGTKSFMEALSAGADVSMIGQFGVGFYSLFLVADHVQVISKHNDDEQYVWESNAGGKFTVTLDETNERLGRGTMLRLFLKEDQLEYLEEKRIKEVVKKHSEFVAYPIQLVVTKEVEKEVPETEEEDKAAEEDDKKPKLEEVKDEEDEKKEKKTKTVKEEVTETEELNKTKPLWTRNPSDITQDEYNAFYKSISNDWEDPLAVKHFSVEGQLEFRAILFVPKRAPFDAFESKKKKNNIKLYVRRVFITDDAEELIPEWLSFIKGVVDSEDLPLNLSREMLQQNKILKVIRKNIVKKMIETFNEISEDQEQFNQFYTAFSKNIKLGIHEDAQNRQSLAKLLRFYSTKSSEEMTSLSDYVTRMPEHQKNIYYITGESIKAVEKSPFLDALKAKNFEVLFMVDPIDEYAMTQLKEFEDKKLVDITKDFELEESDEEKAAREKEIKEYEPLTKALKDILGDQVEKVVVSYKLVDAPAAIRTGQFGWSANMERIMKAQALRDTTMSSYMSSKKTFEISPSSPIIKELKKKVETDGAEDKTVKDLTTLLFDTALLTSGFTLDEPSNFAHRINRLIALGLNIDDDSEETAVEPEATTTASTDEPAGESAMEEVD

[13] = C. albicans growth with fluconazole, confirmation, fluorescence, retest (AID 2467); type: functional, cell-based
[14] = NIH-3T3 fibroblast cytotoxicity, dose response, cytotoxicity control, cell-based, fluorescence, Alamar Blue, secondary assay (AID 2327); type: functional;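 also: NIH-3T3 mouse fibroblasts cultured with fluconazole at 8 µg/mL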
[15] = molecular target: T3, Corticotropin-releasing factor receptor 2/Corticotropin-releasing factor-binding protein (Homo sapiens, UniProt P24387+Q13324); experiment: activators of CRF receptor 2 with binding protein – uHTS hits, confirmation (AID 602473); type: functional; details: read-out: EC50_Mean
T3 sequence (Q13324 whole entry): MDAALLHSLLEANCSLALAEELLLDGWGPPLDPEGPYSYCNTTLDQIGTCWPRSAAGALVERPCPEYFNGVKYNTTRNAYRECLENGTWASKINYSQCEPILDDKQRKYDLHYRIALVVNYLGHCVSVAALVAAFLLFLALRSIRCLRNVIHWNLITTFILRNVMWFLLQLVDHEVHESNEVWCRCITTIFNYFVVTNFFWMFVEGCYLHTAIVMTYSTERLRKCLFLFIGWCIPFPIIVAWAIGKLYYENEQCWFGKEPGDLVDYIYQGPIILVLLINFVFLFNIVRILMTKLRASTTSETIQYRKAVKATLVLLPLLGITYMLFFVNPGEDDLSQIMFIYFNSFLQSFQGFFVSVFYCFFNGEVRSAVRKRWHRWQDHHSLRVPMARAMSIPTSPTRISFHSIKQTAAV
T3 sequence (P24387 whole entry): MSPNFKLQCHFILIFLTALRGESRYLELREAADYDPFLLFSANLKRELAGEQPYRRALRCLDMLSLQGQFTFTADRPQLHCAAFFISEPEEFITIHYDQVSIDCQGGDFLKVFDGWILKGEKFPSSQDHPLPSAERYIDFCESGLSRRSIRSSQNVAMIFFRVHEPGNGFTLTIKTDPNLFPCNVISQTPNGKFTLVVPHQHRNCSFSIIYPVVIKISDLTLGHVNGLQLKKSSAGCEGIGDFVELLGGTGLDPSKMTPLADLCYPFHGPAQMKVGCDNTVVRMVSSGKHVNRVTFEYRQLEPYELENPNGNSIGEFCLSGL

[16] = molecular target: T4, Serine/threonine-protein phosphatase (Candida dubliniensis (strain CD36 / CBS 7987 / NCPF 3949 / NRRLY-17841) (Yeast), UniProt B9W6M3); experiment: calcineurin pathway inhibitors in yeast reporter, dose response, S. cerevisiae, CDRE-lacZ, luminescence, secondary (AID 2388); type: functional, cell-based;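 also: yeast reporter cells carrying a calcineurin-responsive lacZ construct stimulated with calcium chloride; luminescent beta-galactosidase reporter signal in whole cells rather than isolated phosphatase activity; potency for inhibition where a drop in reporter signal means calcineurin blockade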
T4 sequence (B9W6M3 whole entry): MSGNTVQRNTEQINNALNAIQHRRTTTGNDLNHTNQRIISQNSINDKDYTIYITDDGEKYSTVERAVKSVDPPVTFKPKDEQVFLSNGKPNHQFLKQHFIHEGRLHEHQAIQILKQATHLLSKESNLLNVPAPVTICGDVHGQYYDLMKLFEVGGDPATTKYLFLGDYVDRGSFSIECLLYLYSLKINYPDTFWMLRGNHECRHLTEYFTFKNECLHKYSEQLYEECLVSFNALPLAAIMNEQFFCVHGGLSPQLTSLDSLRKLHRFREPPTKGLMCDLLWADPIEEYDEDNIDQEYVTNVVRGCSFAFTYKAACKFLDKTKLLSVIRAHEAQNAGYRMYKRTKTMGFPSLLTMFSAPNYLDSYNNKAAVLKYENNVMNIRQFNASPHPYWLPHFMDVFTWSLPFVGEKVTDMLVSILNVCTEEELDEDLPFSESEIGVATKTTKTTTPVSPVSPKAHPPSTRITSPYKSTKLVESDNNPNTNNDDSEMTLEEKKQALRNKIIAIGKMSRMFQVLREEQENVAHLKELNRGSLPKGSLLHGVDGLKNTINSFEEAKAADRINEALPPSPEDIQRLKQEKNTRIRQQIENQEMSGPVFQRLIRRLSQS

[17] = molecular target: Luciferin 4-monooxygenase (Photinus pyralis, UniProt P08659); experiment: firefly luciferase enzyme inhibitors, dose response, biochemical, luminescence (AID 1891)
Chain of Luciferin 4-monooxygenase (P08659 whole entry): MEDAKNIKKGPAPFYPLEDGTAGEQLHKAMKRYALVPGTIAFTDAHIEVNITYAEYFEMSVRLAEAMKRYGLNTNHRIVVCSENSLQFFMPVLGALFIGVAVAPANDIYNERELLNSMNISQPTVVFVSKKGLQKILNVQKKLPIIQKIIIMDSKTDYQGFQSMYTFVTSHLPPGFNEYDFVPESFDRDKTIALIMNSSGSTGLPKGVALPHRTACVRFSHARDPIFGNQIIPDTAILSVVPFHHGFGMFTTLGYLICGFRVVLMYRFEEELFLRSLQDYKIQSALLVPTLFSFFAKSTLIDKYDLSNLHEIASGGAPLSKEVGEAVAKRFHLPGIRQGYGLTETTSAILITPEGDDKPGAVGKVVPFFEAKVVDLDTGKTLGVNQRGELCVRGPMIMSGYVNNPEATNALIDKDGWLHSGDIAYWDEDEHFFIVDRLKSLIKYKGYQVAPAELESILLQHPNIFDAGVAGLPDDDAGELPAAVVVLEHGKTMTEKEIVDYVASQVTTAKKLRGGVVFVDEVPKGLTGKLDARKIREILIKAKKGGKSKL

[18] = Luminescence Cell-Based Dose Confirmation HTS to Identify Inhibitors of Platelet Dense Granule Release. [Related pubchem assays: 1663 (Primary HTS), 1678 (Summary of Project)]; type: functional
[19] = molecular target: 72 kDa type IV collagenase (Homo sapiens, UniProt P08253); experiment: Dose Response validation of uHTS RPN11 inhibitor hits using a MMP-2 Fluorescence assay.; type: functional
Chain of 72 kDa type IV collagenase (P08253 whole entry): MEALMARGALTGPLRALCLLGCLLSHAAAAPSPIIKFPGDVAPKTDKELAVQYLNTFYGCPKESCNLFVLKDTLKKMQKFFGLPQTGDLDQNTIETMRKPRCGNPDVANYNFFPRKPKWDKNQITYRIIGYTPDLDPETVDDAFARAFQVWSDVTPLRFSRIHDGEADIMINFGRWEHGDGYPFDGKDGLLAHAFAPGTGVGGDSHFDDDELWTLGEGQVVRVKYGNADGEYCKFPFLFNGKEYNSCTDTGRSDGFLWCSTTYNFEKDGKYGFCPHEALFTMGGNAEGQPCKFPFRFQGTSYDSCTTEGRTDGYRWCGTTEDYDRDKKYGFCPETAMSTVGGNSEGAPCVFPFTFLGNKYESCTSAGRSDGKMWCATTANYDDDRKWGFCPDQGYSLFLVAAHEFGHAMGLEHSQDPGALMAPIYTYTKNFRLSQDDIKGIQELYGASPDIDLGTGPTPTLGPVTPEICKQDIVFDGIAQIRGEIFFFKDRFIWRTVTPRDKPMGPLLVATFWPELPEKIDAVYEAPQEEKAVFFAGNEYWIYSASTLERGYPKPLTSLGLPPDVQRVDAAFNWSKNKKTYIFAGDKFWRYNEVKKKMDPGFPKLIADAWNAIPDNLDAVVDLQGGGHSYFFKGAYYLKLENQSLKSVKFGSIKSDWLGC

Prothrombin = Prothrombin (Bos taurus, UniProt P00735); experiment: thrombin inhibition, dose response, biochemical, fluorescence polarization, uHTS hits (AID 602369); type: functional
[20] = molecular target: 26S proteasome non-ATPase regulatory subunit 14 (Homo sapiens, UniProt O00487); experiment: inhibition of proteasome subunit RPN11 – biochemical, fluorescence polarization, uHTS hits, confirmation (AID 602368); type: functional
Chain of 26S proteasome non-ATPase regulatory subunit 14 (O00487 whole entry): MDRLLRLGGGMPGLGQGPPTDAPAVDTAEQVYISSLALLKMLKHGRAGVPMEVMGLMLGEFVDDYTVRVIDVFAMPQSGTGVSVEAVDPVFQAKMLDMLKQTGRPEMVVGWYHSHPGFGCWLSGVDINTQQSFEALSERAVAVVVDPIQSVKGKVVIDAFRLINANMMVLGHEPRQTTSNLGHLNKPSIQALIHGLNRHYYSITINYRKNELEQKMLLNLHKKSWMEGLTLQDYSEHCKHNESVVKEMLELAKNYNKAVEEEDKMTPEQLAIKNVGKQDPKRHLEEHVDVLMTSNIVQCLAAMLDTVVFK

Large T antigen = Large T antigen (Simian virus 40, UniProt P03070); type: functional, Betapolyomavirus macacae;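 also: Confirmatory-stage PubChem screen for compounds that inhibit SV40 T antigen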
Chain of Large T antigen (P03070 whole entry): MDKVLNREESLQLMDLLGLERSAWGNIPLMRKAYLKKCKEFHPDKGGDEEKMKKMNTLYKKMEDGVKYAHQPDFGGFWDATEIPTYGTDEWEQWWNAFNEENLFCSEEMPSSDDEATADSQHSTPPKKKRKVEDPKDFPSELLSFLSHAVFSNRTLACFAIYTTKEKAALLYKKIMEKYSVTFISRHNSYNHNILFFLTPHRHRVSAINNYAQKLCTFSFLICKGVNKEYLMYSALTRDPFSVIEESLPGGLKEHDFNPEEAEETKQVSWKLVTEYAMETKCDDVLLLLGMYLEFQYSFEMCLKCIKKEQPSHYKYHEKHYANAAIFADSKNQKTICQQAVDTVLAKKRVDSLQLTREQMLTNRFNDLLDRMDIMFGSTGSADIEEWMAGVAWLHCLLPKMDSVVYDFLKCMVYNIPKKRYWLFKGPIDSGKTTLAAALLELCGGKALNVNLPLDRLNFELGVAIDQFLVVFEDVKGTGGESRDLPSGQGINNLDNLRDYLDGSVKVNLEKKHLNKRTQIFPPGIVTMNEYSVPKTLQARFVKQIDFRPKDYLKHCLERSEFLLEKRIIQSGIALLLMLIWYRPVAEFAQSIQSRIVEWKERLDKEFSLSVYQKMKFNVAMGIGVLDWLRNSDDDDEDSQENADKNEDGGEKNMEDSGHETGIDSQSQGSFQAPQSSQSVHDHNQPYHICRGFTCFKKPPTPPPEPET

T1 sequence (P63165 whole entry): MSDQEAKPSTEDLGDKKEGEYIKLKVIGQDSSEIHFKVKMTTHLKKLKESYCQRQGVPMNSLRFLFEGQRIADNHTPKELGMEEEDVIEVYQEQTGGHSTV

SMILES: Cn1cc([N+](=O)[O-])c(C(=O)Nc2ccc(-c3nc4ccccc4o3)cc2)n1
- IC50 [1]: 17.3 µM (active)
- AC50 [2]: 2.45 µM (active)
- IC50 [3]: > 66.6 µM (inactive)
- EC50 [4]: 6.61 µM (active)

SMILES: O=C(c1cc(COc2c(F)cccc2F)on1)N1CCC(c2ccncc2)CC1
- EC50 (HEK293 [5]): 2.64 µM (active)
- IC50 (HEK293 [6]): 9.14 µM (active)
- AC50 [7]: 2.31 µM (active)
- AC50 [8]: 1.6 µM (active)
- AC50 [9]: 6.75 µM (active)
- IC50 (HEK293 [10]): 17.1 µM (inactive)
- IC50 (HEK293 [11]): > 20 µM (inactive)

SMILES: CCc1nnc(NC(=O)CSc2nc(SC)ns2)s1
- EC50 [12]: > 160 µM (inactive)
- EC50 [13]: 2.88 µM (active)
- EC50 [14]: > 160 µM (inactive)
- EC50 [15]: > 53 µM (inactive)
- EC50 [16]: > 180 µM (inactive)

SMILES: Cc1ccc(NC(=O)COc2ccc(C(=O)NCCc3ccccc3)cc2)cc1
- EC50 [17]: > 112 µM (not active)
- EC50 [18]: > 112 µM (not active)

SMILES: O=C1NC(=O)N(c2ccc(Cl)cc2)C(=O)/C1=C\c1ccc(Sc2nc3ccccc3[nH]2)o1
- IC50 [19]: > 100 µM (inactive)
- IC50 (Prothrombin): 44.9 µM (active)
- IC50 [20]: 42.2 µM (active)
- IC50 (Large T antigen): 18.8 µM (active)
